The term IC50 denotes the concentration that gives 50% inhibition.

One test has as its target CK1δ (Homo sapiens, UniProt P48730). The test can be described thus: CK1δ kinase assay (Caliper LabChip electrophoretic separation of fluoresceinated peptide substrate and product). It is filed as biochemical. The settings on record: 200 pM CK1δ, 50 μM ATP, 1.5 μM peptide, 22 hours at room temperature; read-out: CK1δ IC50 range. In outline: (§1)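 Kinase reactions ran 22 h at room temperature, were stopped with EDTA, and phosphorylated product was separated electrophoretically from unphosphorylated fluoresceinated peptide. Compounds were tested at eleven concentrations from 10 mM DMSO stocks. IC50 by non-linear regression.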

Another test deals with CK1ε (Homo sapiens, UniProt P49674). The test can be described thus: CK1ε kinase assay (Caliper LabChip electrophoretic separation of fluoresceinated peptide substrate and product). The format is biochemical. The settings on record: 200 pM CK1ε, 50 μM ATP, 1.5 μM peptide, 22 hours at room temperature; read-out: CK1ε IC50 range. In outline:
as §1

CK1δ, sequence (P48730 whole entry): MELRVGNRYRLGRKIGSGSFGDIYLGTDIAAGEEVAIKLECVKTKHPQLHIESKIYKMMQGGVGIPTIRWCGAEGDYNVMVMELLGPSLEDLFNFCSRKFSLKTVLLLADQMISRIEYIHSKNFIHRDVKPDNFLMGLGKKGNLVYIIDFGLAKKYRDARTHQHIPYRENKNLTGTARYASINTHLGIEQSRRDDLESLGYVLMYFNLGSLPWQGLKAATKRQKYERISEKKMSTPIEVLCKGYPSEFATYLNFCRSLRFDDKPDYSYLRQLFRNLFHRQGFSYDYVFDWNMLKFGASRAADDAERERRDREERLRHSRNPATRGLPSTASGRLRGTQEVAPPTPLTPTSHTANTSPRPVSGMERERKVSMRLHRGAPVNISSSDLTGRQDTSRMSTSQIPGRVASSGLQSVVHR
CK1ε, sequence (P49674 whole entry): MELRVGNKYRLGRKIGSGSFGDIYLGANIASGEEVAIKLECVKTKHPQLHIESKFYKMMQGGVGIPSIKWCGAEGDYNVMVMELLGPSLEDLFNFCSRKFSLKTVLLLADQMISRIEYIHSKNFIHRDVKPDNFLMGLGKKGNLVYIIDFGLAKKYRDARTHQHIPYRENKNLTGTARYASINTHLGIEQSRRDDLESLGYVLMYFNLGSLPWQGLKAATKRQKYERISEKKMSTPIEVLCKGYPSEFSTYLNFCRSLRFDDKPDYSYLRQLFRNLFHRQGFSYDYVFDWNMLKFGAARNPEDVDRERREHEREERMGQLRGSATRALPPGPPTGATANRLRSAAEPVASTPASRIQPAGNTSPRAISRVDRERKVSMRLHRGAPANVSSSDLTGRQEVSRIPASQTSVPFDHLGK

Take `NC(=O)c1c(-c2ccc(F)c(Cl)c2)nn2c1CN(C(=O)NC13CCC(CC1)CC3)CC2` [Compound A58, N^5-(Bicyclo[2.2.2]octan-1-yl)-2-(3-chloro-4-fluorophenyl)-6,7-dihydropyrazolo[1,5-a]pyrazine-3,5(4H)-dicarboxamide]: the IC50 at CK1δ and on CK1ε was 0.01 to 10 nM in each case.

With `COC12CCC(NC(=O)N3CCn4nc(-c5ccc(F)c(Cl)c5)c(C(N)=O)c4C3)(CC1)C(F)(F)C2` [Compound A61, 2-(3-Chloro-4-fluorophenyl)-N^5-(2,2-difluoro-4-methoxybicyclo[2.2.2]octan-1-yl)-6,7-dihydropyrazolo[1,5-a]pyrazine-3,5(4H)-dicarboxamide], the IC50 on CK1δ and on CK1ε was 0.01 to 10 nM each time.

As to `CC(C)(O)C12CCC(NC(=O)N3CCn4nc(-c5ccc(F)c(Cl)c5)c(C(N)=O)c4C3)(CC1)CC2` [Compound A62, 2-(3-Chloro-4-fluorophenyl)-N^5-(4-(2-hydroxypropan-2-yl)bicyclo[2.2.2]octan-1-yl)-6,7-dihydropyrazolo[1,5-a]pyrazine-3,5(4H)-dicarboxamide], the IC50 at CK1δ and on CK1ε was 0.01 to 10 nM each time.

Turning to `COC12CCC(NC(=O)N3CCn4nc(-c5ccc(F)c(Cl)c5)c(C(N)=O)c4C3)(CC1)C2` [Compound A63, 2-(3-Chloro-4-fluorophenyl)-N^5-(4-methoxybicyclo[2.2.1]heptan-1-yl)-6,7-dihydropyrazolo[1,5-a]pyrazine-3,5(4H)-dicarboxamide], the IC50 on CK1δ and on CK1ε was 0.01 to 10 nM throughout.

`NC(=O)c1c(-c2ccc(F)c(Cl)c2)nn2c1CN(C(=O)NC13CCCC(CCC1)C3)CC2` [Compound A64, N^5-((1r,5r)-Bicyclo[3.3.1]nonan-1-yl)-2-(3-chloro-4-fluorophenyl)-6,7-dihydropyrazolo[1,5-a]pyrazine-3,5(4H)-dicarboxamide]: the IC50 at CK1δ and at CK1ε was 0.01 to 10 nM in each case.

In the case of `CC12CC3(C)CC(C)(C1)CC(NC(=O)N1CCn4nc(-c5ccc(F)c(Cl)c5)c(C(N)=O)c4C1)(C2)C3` [Compound A65, 2-(3-Chloro-4-fluorophenyl)-N^5-((3s,5s,7s)-3,5,7-trimethyladamantan-1-yl)-6,7-dihydropyrazolo[1,5-a]pyrazine-3,5(4H)-dicarboxamide], the IC50 at CK1δ and at CK1ε was 0.01 to 10 nM each time.

`CC1(C)C2CCC1(NC(=O)N1CCn3nc(-c4ccc(F)c(Cl)c4)c(C(N)=O)c3C1)CC2O` (centres unmarked) [Compound A66, 2-(3-Chloro-4-fluorophenyl)-N^5-(3-hydroxy-7,7-dimethylbicyclo[2.2.1]heptan-1-yl)-6,7-dihydropyrazolo[1,5-a]pyrazine-3,5(4H)-dicarboxamide]: the IC50 at CK1δ and on CK1ε was 0.01 to 10 nM throughout.

For `CC1(C)C2CCC1(NC(=O)N1CCn3nc(-c4ccc(F)c(Cl)c4)c(C(N)=O)c3C1)CC2F` (centres unmarked) [Compound A67, 2-(3-Chloro-4-fluorophenyl)-N^5-(3-fluoro-7,7-dimethylbicyclo[2.2.1]heptan-1-yl)-6,7-dihydropyrazolo[1,5-a]pyrazine-3,5(4H)-dicarboxamide], the IC50 on CK1δ and on CK1ε was 0.01 to 10 nM in each case.

Regarding `CC12CC3CC(C)(C1)CC(NC(=O)N1CCn4nc(-c5ccc(F)c(Cl)c5)c(C(N)=O)c4C1)(C3)C2` [Compound A68, 2-(3-Chloro-4-fluorophenyl)-N^5-((1r,3R,5S,7r)-3,5-dimethyladamantan-1-yl)-6,7-dihydropyrazolo[1,5-a]pyrazine-3,5(4H)-dicarboxamide], the IC50 at CK1δ and on CK1ε was 0.01 to 10 nM throughout.

In the case of `C[C@@]12C[C@H]3C[C@@](Cl)(C1)C[C@](NC(=O)N1CCn4nc(-c5ccc(F)c(Cl)c5)c(C(N)=O)c4C1)(C3)C2` [Compound A69, 2-(3-Chloro-4-fluorophenyl)-N^5-((1S,3R,5S,7R)-3-chloro-5-methyladamantan-1-yl)-6,7-dihydropyrazolo[1,5-a]pyrazine-3,5(4H)-dicarboxamide], the IC50 on CK1δ and on CK1ε was 0.01 to 10 nM in each case.

As to `COC12CCC(NC(=O)N3CCn4nc(-c5cccc(Cl)c5)c(C(N)=O)c4C3)(CC1)C(=O)C2` [Compound A76, 2-(3-Chlorophenyl)-N^5-(4-methoxy-2-oxobicyclo[2.2.2]octan-1-yl)-6,7-dihydropyrazolo[1,5-a]pyrazine-3,5(4H)-dicarboxamide], the IC50 at CK1δ and at CK1ε was 0.01 to 10 nM throughout.

With `NC(=O)c1c(-c2cccc(Cl)c2)nn2c1CN(C(=O)NC13CCC(C(F)F)(CC1)CC3)CC2` [Compound A77, 2-(3-Chlorophenyl)-N^5-(4-(difluoromethyl)bicyclo[2.2.2]octan-1-yl)-6,7-dihydropyrazolo[1,5-a]pyrazine-3,5(4H)-dicarboxamide], the IC50 at CK1δ and at CK1ε was 0.01 to 10 nM throughout.

Consider `NC(=O)c1c(-c2cccc(Cl)c2)nn2c1CN(C(=O)NC13CCC(CF)(CC1)CC3)CC2` [Compound A78, 2-(3-Chlorophenyl)-N^5-(4-(fluoromethyl)bicyclo[2.2.2]octan-1-yl)-6,7-dihydropyrazolo[1,5-a]pyrazine-3,5(4H)-dicarboxamide], for which the IC50 on CK1δ and at CK1ε was 0.01 to 10 nM throughout.

Consider `NC(=O)c1c(-c2cccc(Cl)c2)nn2c1CN(C(=O)NC13CCC(CC1)CC3)CC2` [Compound A79, N^5-(Bicyclo[2.2.2]octan-1-yl)-2-(3-chlorophenyl)-6,7-dihydropyrazolo[1,5-a]pyrazine-3,5(4H)-dicarboxamide], for which the IC50 on CK1δ and on CK1ε was 0.01 to 10 nM in each case.

As to `COC12CCC(NC(=O)N3CCn4nc(-c5cccc(Cl)c5)c(C(N)=O)c4C3)(CC1)CC2` [Compound A80, 2-(3-Chlorophenyl)-N^5-(4-methoxybicyclo[2.2.2]octan-1-yl)-6,7-dihydropyrazolo[1,5-a]pyrazine-3,5(4H)-dicarboxamide], the IC50 on CK1δ and on CK1ε was 0.01 to 10 nM throughout.

On to `COC12CCC(NC(=O)N3CCn4nc(-c5cccc(Cl)c5)c(C(N)=O)c4C3)(CC1)C(F)(F)C2` [Compound A81, 2-(3-Chlorophenyl)-N^5-(2,2-difluoro-4-methoxybicyclo[2.2.2]octan-1-yl)-6,7-dihydropyrazolo[1,5-a]pyrazine-3,5(4H)-dicarboxamide], for which the IC50 on CK1δ and at CK1ε was 0.01 to 10 nM in each case.

As for `COC12CCC(NC(=O)N3CCn4nc(-c5cccc(Cl)c5)c(C(N)=O)c4C3)(CC1)C2` [Compound A82, 2-(3-Chlorophenyl)-N^5-(4-methoxybicyclo[2.2.1]heptan-1-yl)-6,7-dihydropyrazolo[1,5-a]pyrazine-3,5(4H)-dicarboxamide], the IC50 at CK1δ and at CK1ε was 0.01 to 10 nM in each case.

Take `NC(=O)c1c(-c2cccc(Cl)c2)nn2c1CN(C(=O)NC13CCC(c4ccccc4)(CC1)CC3)CC2` [Compound A83, 2-(3-Chlorophenyl)-N^5-(4-phenylbicyclo[2.2.2]octan-1-yl)-6,7-dihydropyrazolo[1,5-a]pyrazine-3,5(4H)-dicarboxamide]: the IC50 on CK1δ and on CK1ε was 0.01 to 10 nM each time.

For `NC(=O)c1c(-c2cccc(Cl)c2)nn2c1CN(C(=O)NC13CCCC(CCC1)C3)CC2` [Compound A84, N^5-((1r,5r)-Bicyclo[3.3.1]nonan-1-yl)-2-(3-chlorophenyl)-6,7-dihydropyrazolo[1,5-a]pyrazine-3,5(4H)-dicarboxamide], the IC50 on CK1δ and at CK1ε was 0.01 to 10 nM each time.

For the compound `CC12CC3(C)CC(C)(C1)CC(NC(=O)N1CCn4nc(-c5cccc(Cl)c5)c(C(N)=O)c4C1)(C2)C3` [Compound A85, 2-(3-Chlorophenyl)-N^5-((3s,5s,7s)-3,5,7-trimethyladamantan-1-yl)-6,7-dihydropyrazolo[1,5-a]pyrazine-3,5(4H)-dicarboxamide], the IC50 at CK1δ and at CK1ε was 0.01 to 10 nM each time.

In the case of `NC(=O)c1c(-c2cccc(Cl)c2)nn2c1CN(C(=O)NC13C4C5C6C4C1C6C53)CC2` (centres unmarked) [Compound A86, N^5-(Cuban-1-yl)-2-(3-chlorophenyl)-6,7-dihydropyrazolo[1,5-a]pyrazine-3,5(4H)-dicarboxamide], the IC50 at CK1δ and at CK1ε was 0.01 to 10 nM each time.

On to `N#CC12C3C4C1C1C2C3C41NC(=O)N1CCn2nc(-c3cccc(Cl)c3)c(C(N)=O)c2C1` (centres unmarked) [Compound A87, N^5-(4-Cyanocuban-1-yl)-2-(3-chlorophenyl)-6,7-dihydropyrazolo[1,5-a]pyrazine-3,5(4H)-dicarboxamide], for which the IC50 on CK1δ and at CK1ε was 0.01 to 10 nM each time.

`NC(=O)c1c(-c2cccc(Cl)c2)nn2c1CN(C(=O)NC13C4C5C1C1C3C4C51F)CC2` (centres unmarked) [Compound A88, N^5-(4-Fluorocuban-1-yl)-2-(3-chlorophenyl)-6,7-dihydropyrazolo[1,5-a]pyrazine-3,5(4H)-dicarboxamide]: the IC50 on CK1δ and on CK1ε was 0.01 to 10 nM throughout.

In the case of `NC(=O)c1c(-c2ccc(Cl)c(Cl)c2)nn2c1CN(C(=O)NC13CCC(c4ccc(F)cc4)(CC1)CC3)CC2` [Compound A89, 2-(3,4-Dichlorophenyl)-N^5-(4-(4-fluorophenyl)bicyclo[2.2.2]octan-1-yl)-6,7-dihydropyrazolo[1,5-a]pyrazine-3,5(4H)-dicarboxamide], the IC50 at CK1δ and at CK1ε was 0.01 to 10 nM in each case.

With `N#Cc1ccc(C23CCC(NC(=O)N4CCn5nc(-c6ccc(Cl)c(Cl)c6)c(C(N)=O)c5C4)(CC2)CC3)cc1` [Compound A90, N^5-(4-(4-Cyanophenyl)bicyclo[2.2.2]octan-1-yl)-2-(3,4-dichlorophenyl)-6,7-dihydropyrazolo[1,5-a]pyrazine-3,5(4H)-dicarboxamide], the IC50 on CK1δ and on CK1ε was 0.01 to 10 nM in each case.

For the origin of these results see US9273058B2 (BRISTOL-MYERS SQUIBB COMPANY, priority 2013, dated 2016).
